Source: US7964647B2 (Mutual Pharmaceutical Company, Inc., priority 2007, dated 2011)
Like-named read-outs stand apart in the source and are kept apart here.

What was measured:
[1] = Pharmacokinetic study of standard-dose acute gout regimen 4.8 mg over 6 hours (Example 6); conditions: for Cmax / Tmax / half-life: human, in vivo, 4.8 mg
Experimental: This study was a single center, randomized, double-blind, double-dummy pharmacokinetic and exploratory ECG safety study.
Those randomized to moxifloxacin received 1×400 mg tablet.

[2] = not given; remark: listed apart in the source
clinical [3] = conditions: human, in vivo, 0.6 mg; for AUC: AUC0-τ, 0.6 mg b.i.d. x 10 days, after last dose (Day 25), healthy adults, N = 13
Experimental: Subjects received a light breakfast served 60 minutes following dose administration in the morning and the evening dose was administered 90 minutes after an evening meal on Days 15 through 24 only. […] Study periods were separated by a 14-day washout. Following the single dose and the last dose of the multiple dose regimen (beginning on the mornings of Day 1 and Day 25, respectively), blood samples were collected (6 mL each) from each subject within 1 hour prior to dosing and after dose administration at study hours 0.5, 1, 1.5, 2, 3, 4, 6, 8, 10, 12, and 24 (while confined) and 36, 48, 72, and 96 (on an outpatient basis).

clinical [4] = conditions: human, plasma, oral, 1.8 mg, N = 13; for Cmax: low-dose regimen 1.8 mg (2 x 0.6 mg, then 0.6 mg 1 hour later), fasting healthy adults; for Tmax / half-life: low-dose regimen 1.8 mg, healthy adults; for Tmax: time after the initial dose
Experimental: This study was a single-center, single-period, open-label pharmacokinetic study conducted in healthy subjects under fasting conditions.
Subjects received 2×0.6 mg tablets initially followed by 1×0.6 mg tablet 1 hour later.

[5] = standard-dose regimen 4.8 mg over 6 hours, healthy adults, N = 15
[6] = standard-dose regimen 4.8 mg over 6 hours, time after the initial dose, healthy adults, N = 15
[7] = 0.6 mg b.i.d. x 10 days, after last dose (Day 25), healthy adults, N = 13
[8] = single oral 0.6 mg dose, healthy adults, N = 13
[9] = low-dose regimen 1.8 mg (2 x 0.6 mg, then 0.6 mg 1 hour later), fasting healthy adults, N = 13
[10] = low-dose regimen 1.8 mg, healthy adults, N = 13
[11] = low-dose regimen 1.8 mg, time after the initial dose, healthy adults, N = 13

COc1cc2c(c(OC)c1OC)-c1ccc(OC)c(=O)cc1[C@@H](NC(C)=O)CC2 [Colchicine, (−)-N-[(7S,12aS)-1,2,3,10-tetramethoxy-9-oxo-5,6,7,9-tetrahydrobenzo[a]heptalen-7-yl]-acetamide]
Cmax ([1]; MEAN, standard-dose regimen 4.8 mg over 6 hours, healthy adults, N = 15): 6.8 ng/mL | Cmax ([1]; MEDIAN, standard-dose regimen 4.8 mg over 6 hours, healthy adults, N = 15): 6.69 ng/mL | Tmax ([1]; MEAN, standard-dose regimen 4.8 mg over 6 hours, time after the initial dose, healthy adults, N = 15): ~4.5 h | Tmax ([1]; MEDIAN, standard-dose regimen 4.8 mg over 6 hours, time after the initial dose, healthy adults, N = 15): 3.12 h | half-life ([1]; t1/2, MEAN, standard-dose regimen 4.8 mg over 6 hours, healthy adults, N = 15): 31.4 h | half-life ([1]; t1/2, MEDIAN, standard-dose regimen 4.8 mg over 6 hours, healthy adults, N = 15): 32.8 h | CL/F, MAX [1, 5]: 78287.41 mL/h | CL/F, MEAN [1, 5]: 43168.87 mL/h | CL/F, MEDIAN [1, 5]: 37954.71 mL/h | CL/F, MIN [1, 5]: 31386.01 mL/h | Cmax, MAX [1, 5]: 8.60 ng/mL | Cmax, MEAN [1, 5]: 6.84 ng/mL | Cmax, MIN [1, 5]: 4.95 ng/mL | Kel, MAX [1, 5]: 0.0461 h⁻¹ | Kel, MEAN [1, 5]: 0.0242 h⁻¹ | Kel, MEDIAN [1, 5]: 0.0212 h⁻¹ | Kel, MIN [1, 5]: 0.0147 h⁻¹ | Total AUC0-t, MAX [1, 5]: 138.24 ng·h/mL | Total AUC0-t, MEAN [1, 5]: 104.95 ng·h/mL | Total AUC0-t, MEDIAN [1, 5]: 113.12 ng·h/mL | Total AUC0-t, MIN [1, 5]: 53.74 ng·h/mL | Total AUC∞, MAX [1, 5]: 152.93 ng·h/mL | Total AUC∞, MEAN [1, 5]: 118.20 ng·h/mL | Total AUC∞, MEDIAN [1, 5]: 126.47 ng·h/mL | Total AUC∞, MIN [1, 5]: 61.31 ng·h/mL | Varea/F, MAX [1, 5]: 2639.21 L | Varea/F, MEAN [1, 5]: 1876.09 L | Varea/F, MEDIAN [1, 5]: 1902.14 L | Varea/F, MIN [1, 5]: 805.92 L | t1/2, MAX [1, 5]: 47.22 h | t1/2, MIN [1, 5]: 15.03 h | Tmax, MAX [1, 6]: 7.50 h | Tmax, MEAN [1, 6]: 4.47 h | Subjects with a secondary peak within 6 hours ([1]; standard-dose regimen 4.8 mg, 13 of 15 subjects): 87% | AUC0-inf, MAX [7]: 67.94465 ng·h/mL | AUC0-inf, MEAN [7]: 54.19877 ng·h/mL | AUC0-inf, MEDIAN [7]: 54.11343 ng·h/mL | AUC0-inf, MIN [7]: 37.59976 ng·h/mL | AUC0-t, MAX [7]: 58.26535 ng·h/mL | AUC0-t, MEAN [7]: 43.57696 ng·h/mL | AUC0-t, MEDIAN [7]: 41.9251 ng·h/mL | AUC0-t, MIN [7]: 29.32878 ng·h/mL | AUC0-τ, MAX [7]: 36.08395 ng·h/mL | AUC0-τ, MIN [7]: 20.79198 ng·h/mL | Cave, MAX [7]: 1.5035 ng/mL | Cave, MEAN [7]: 1.21068 ng/mL | Cave, MEDIAN [7]: 1.18551 ng/mL | Cave, MIN [7]: 0.86633 ng/mL | Cmax, MAX [7]: 4.957 ng/mL | Cmax, MEAN [7]: 3.55315 ng/mL | Cmax, MEDIAN [7]: 3.734 ng/mL | Cmax, MIN [7]: 1.977 ng/mL | Cmin, MAX [7]: 1.14967 ng/mL | Cmin, MEDIAN [7]: 0.9035 ng/mL | Cmin, MIN [7]: 0.63623 ng/mL | Kel, MAX [7]: 0.03 h⁻¹ | Kel, MEAN [7]: 0.03 h⁻¹ | Kel, MEDIAN [7]: 0.03 h⁻¹ | Kel, MIN [7]: 0.02 h⁻¹ | T1/2, MAX [7]: 33.65 h | T1/2, MEDIAN [7]: 26.51 h | T1/2, MIN [7]: 20.82 h | Tmax, MAX [7]: 3.00 h | Tmax, MEAN [7]: 1.31 h | Tmax, MIN [7]: 0.50 h | AUC0-inf, MAX [8]: 23.83848 ng·h/mL | AUC0-inf, MIN [8]: 7.25266 ng·h/mL | AUC0-t, MAX [8]: 18.12865 ng·h/mL | AUC0-t, MIN [8]: 4.81288 ng·h/mL | Cmax, MAX [8]: 3.977 ng/mL | Cmax, MIN [8]: 1.584 ng/mL | Kel, MAX [8]: 0.2443 h⁻¹ | Kel, MEAN [8]: 0.1829 h⁻¹ | Kel, MEDIAN [8]: 0.1992 h⁻¹ | Kel, MIN [8]: 0.0359 h⁻¹ | T1/2, MAX [8]: 19.29 h | T1/2, MIN [8]: 2.84 h | Tmax, MAX [8]: 3.00 h | Cmin prior to the morning dose higher than Cmin prior to the evening dose (steady state, Day 23 and Day 24): approximately 12% | Cmax, MAX [2, 9]: 11.37 ng/mL | Cmax, MIN [2, 9]: 3.16 ng/mL | Maximum colchicine concentration ([2]; low-dose regimen 1.8 mg, healthy adults): 6.2 ng/mL | CL/F, MAX [2, 10]: 52676.24 mL/h | CL/F, MEAN [2, 10]: 36950.93 mL/h | CL/F, MEDIAN [2, 10]: 35444.40 mL/h | CL/F, MIN [2, 10]: 24295.73 mL/h | Kel, MAX [2, 10]: 0.0502 h⁻¹ | Kel, MEAN [2, 10]: 0.0326 h⁻¹ | Kel, MEDIAN [2, 10]: 0.0322 h⁻¹ | Kel, MIN [2, 10]: 0.0141 h⁻¹ | Total AUC0-t, MAX [2, 10]: 58.93199 ng·h/mL | Total AUC0-t, MEAN [2, 10]: 43.78755 ng·h/mL | Total AUC0-t, MEDIAN [2, 10]: 43.94215 ng·h/mL | Total AUC0-t, MIN [2, 10]: 28.82145 ng·h/mL | Total AUC∞, MAX [2, 10]: 74.08708 ng·h/mL | Total AUC∞, MEAN [2, 10]: 52.07006 ng·h/mL | Total AUC∞, MEDIAN [2, 10]: 50.78377 ng·h/mL | Total AUC∞, MIN [2, 10]: 34.171 ng·h/mL | Varea/F, MAX [2, 10]: 1724.36 L | Varea/F, MEAN [2, 10]: 1188.72 L | Varea/F, MEDIAN [2, 10]: 1149.35 L | Varea/F, MIN [2, 10]: 774.19 L | t1/2, MAX [2, 10]: 49.20 h | t1/2, MEAN [2, 10]: 23.63 h | t1/2, MIN [2, 10]: 13.80 h | Tmax, MAX [2, 11]: 2.50 h | Tmax, MIN [2, 11]: 1.00 h | Subjects with a secondary peak within 6 hours after the first dose ([2]; low-dose regimen 1.8 mg, 10 of 13 subjects): 77% | Tmax (clinical [3]): 1 h | AUC (clinical [3]; MEAN): 29.1 ng·h/mL | AUC (clinical [3]; MEDIAN): 28.5 ng·h/mL | Cmax (clinical [3]; po): 2.71 ng/mL | half-life (clinical [3]; po): ~5 h | Cmax (clinical [4]; MEAN): 6.19 ng/mL | Cmax (clinical [4]; MEDIAN): 5.68 ng/mL | Tmax (clinical [4]; MEAN): 1.81 h | Tmax (clinical [4]; MEDIAN): 2 h | half-life (clinical [4]; t1/2, MEAN): 23.6 h | half-life (clinical [4]; t1/2, MEDIAN): 21.6 h
